In ChEMBL document CHEMBL5113408, “Design, synthesis and antitumour activity of novel 5(6)-amino-benzimidazolequinones containing a fused morpholine” (Eur J Med Chem, 2022) one finds IC50 data, which are given here for 17 molecules.

Common to all, as to assay type: functional, cell-based
One experiment relates to HeLa. Kind of experiment: Antiproliferative activity against human HeLa cells assessed as inhibition of cell growth by SRB assay. For orientation: The SRB assay estimates cell density from bound dye.
The test system of another experiment is MCF7. Kind of experiment: Antiproliferative activity against human MCF7 cells assessed as inhibition of cell growth by SRB assay.
The next experiment deals with ECa-109 cell line. Description: Antiproliferative activity against human EC109 cells assessed as inhibition of cell growth by SRB assay.
The next experiment deals with MGC-803. Description: Antiproliferative activity against human MGC-803 cells assessed as inhibition of cell growth by SRB assay.

For the molecule `Cc1ccc(NC2=CC(=O)c3c(nc4n3C[C@@H]([C@H](O)CO)OC4)C2=O)cc1`, the half-maximal inhibitory concentration (IC50) in the experiment with HeLa was found to be 5.86 µM; in the experiment on MCF7, 7.41 µM; in the experiment on ECa-109 cell line, 5.08 µM; in the experiment with MGC-803 it was 4.11 µM.
The corresponding values for `O=C1C=C(N2CCCCC2)C(=O)c2c1nc1n2[C@H]2OC[C@@H](O)[C@H]2OC1` are above 16 µM, above 8 µM, above 8 µM and above 8 µM.
The corresponding values for `O=C1C(N2CCCC2)=CC(=O)c2c1nc1n2[C@H]2OC[C@@H](O)[C@H]2OC1` are above 16 µM, above 16 µM, above 16 µM and above 16 µM.
The corresponding values for `O=C1C(NC2CCCCC2)=CC(=O)c2c1nc1n2[C@H]2OC[C@@H](O)[C@H]2OC1` are above 16 µM, above 16 µM, above 16 µM and above 8 µM.
Turning to `COc1ccccc1NC1=CC(=O)c2c(nc3n2[C@H]2OC[C@@H](O)[C@H]2OC3)C1=O`, the IC50 was 7.46 µM with HeLa, 6.58 µM with MCF7, above 4 µM with ECa-109 cell line and 1.67 µM in the experiment on MGC-803.
The corresponding values for `Cc1ccc(NC2=CC(=O)c3c(nc4n3C[C@@H]([C@H](O)CO)OC4)C2=O)cc1C` are 10.1 µM, above 16 µM, above 16 µM and 5.46 µM.
`O=C1C=C(Nc2ccc(I)cc2)C(=O)c2c1nc1n2C[C@@H]([C@H](O)CO)OC1`: the IC50 with HeLa amounted to 3.61 µM; with MCF7, 7.69 µM; in the experiment on ECa-109 cell line, 5.78 µM; in the experiment with MGC-803, 3.25 µM.
The corresponding values for `O=C1C=C(N2CCC2)C(=O)c2c1nc1n2[C@H]2OC[C@@H](O)[C@H]2OC1` are above 16 µM, above 16 µM, above 16 µM and above 16 µM.
The corresponding values for `COc1cccc(NC2=CC(=O)c3nc4n(c3C2=O)C[C@@H]([C@H](O)CO)OC4)c1` are 8.41 µM, above 16 µM, above 16 µM and 9.26 µM.
Regarding `CCOc1ccc(NC2=CC(=O)c3c(nc4n3[C@H]3OC[C@@H](O)[C@H]3OC4)C2=O)cc1`, the IC50 is 14.4 µM in the experiment on HeLa, above 4 µM in the experiment on MCF7, above 4 µM with ECa-109 cell line and 2.09 µM in the experiment on MGC-803.
With `O=C1C(Nc2ccccc2F)=CC(=O)c2c1nc1n2C[C@@H]([C@H](O)CO)OC1`, the IC50 is above 16 µM in the experiment with HeLa, 5.15 µM with MCF7, 5.51 µM with ECa-109 cell line and 3.74 µM in the experiment on MGC-803.
`O=C1C=C(NC2CCCCC2)C(=O)c2c1nc1n2[C@H]2OC[C@@H](O)[C@H]2OC1`: the 50% inhibitory concentration (IC50) with HeLa is above 16 µM; with MCF7, above 8 µM; in the experiment on ECa-109 cell line, above 16 µM; in the experiment with MGC-803, above 8 µM.
With `CCN(CC)C1=CC(=O)c2c(nc3n2[C@H]2OC[C@@H](O)[C@H]2OC3)C1=O`, the half-maximal inhibitory concentration (IC50) in the experiment with HeLa, with MCF7 and with MGC-803 was above 16 µM throughout.
Turning to `O=C1C(N2CCOCC2)=CC(=O)c2c1nc1n2[C@H]2OC[C@@H](O)[C@H]2OC1`, the concentration for half-maximal inhibition (IC50) was above 16 µM with HeLa, above 16 µM in the experiment on MCF7 and above 4 µM in the experiment with MGC-803.
Take `O=c1[nH]cc(F)c(=O)[nH]1` [FLUOROURACIL]: the 50% inhibitory concentration (IC50) came out at 24.3 µM in the experiment on HeLa, 11.4 µM with ECa-109 cell line and 10.3 µM in the experiment with MGC-803.
As to `O=C1C(NC2CC2)=CC(=O)c2c1nc1n2[C@H]2OC[C@@H](O)[C@H]2OC1`, the IC50 with HeLa is above 16 µM; in the experiment on MCF7, above 16 µM; with MGC-803, above 4 µM.
As for `CN(C)C1=CC(=O)c2c(nc3n2[C@H]2OC[C@@H](O)[C@H]2OC3)C1=O`, the IC50 in the experiment on HeLa, in the experiment on MCF7 and in the experiment with MGC-803 was above 16 µM in each case.

By IC50 is commonly meant the concentration needed to halve the response being measured.
